Data reported in patent publication US5387602A, “1.5-diphenyl-3-(N-hydroxycarbamoyloxyalkyl)pyrazoles” (Ortho Pharmaceutical Corporation, priority 1993, dated 1995).

Legend:
[1] = biological target: T1, RBL-1 Cell Cyclooxygenase (Rattus norvegicus, UniProt Q63921); assay: Procedure II: cyclooxygenase inhibition in disrupted RBL-1 cells (supernatant as enzyme source); format: biochemical; settings: for IC50: read-out: IC50 CO (Procedure II)
T1 construct: the supernatant was saved as the source of enzymes; endogenous in cells; host or cells: RBL-1 (rat basophilic leukemia cells), 10,000×g supernatant of homogenate
T1 sequence (Q63921 27-602): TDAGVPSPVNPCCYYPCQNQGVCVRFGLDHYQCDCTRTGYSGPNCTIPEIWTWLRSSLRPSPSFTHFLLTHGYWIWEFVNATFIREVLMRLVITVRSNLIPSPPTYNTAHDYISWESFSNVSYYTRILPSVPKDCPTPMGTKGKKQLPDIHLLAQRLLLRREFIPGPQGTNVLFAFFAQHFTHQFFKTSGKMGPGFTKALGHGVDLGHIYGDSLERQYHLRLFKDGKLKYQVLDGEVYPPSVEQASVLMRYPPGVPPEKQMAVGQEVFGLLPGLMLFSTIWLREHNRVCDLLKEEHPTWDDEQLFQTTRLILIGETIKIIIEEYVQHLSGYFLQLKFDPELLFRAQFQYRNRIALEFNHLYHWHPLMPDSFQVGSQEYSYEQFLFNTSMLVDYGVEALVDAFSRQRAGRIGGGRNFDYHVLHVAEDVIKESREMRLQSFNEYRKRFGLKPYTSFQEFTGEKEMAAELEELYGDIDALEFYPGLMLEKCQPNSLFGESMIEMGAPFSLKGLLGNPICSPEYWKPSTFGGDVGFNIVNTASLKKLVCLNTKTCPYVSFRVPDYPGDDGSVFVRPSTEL
Procedure: (§1) RBL-1 Cell 5-Lipoxygenase and Cyclooxygenase
(§2) Rat basophilic leukemia cells (RBL-1; 5×10^7 viable cells/mL) were disrupted by homogenization on ice (four 20 sec bursts) with a Brinkman polytron. Complete cell breakage was verified microscopically. The homogenate was then centrifuged at 10,000×g for 48 minutes at 4° C. The pellet was discarded and the supernatant was saved as the source of enzymes. The supernatant was pre-incubated for five minutes at 37° C. in the presence of 2 mM of CaCl2 and compound or vehicle (1% DMSO). The conversion of AA into 5-LO products was initiated by adding 10 μL (50 μCi) of 1-^14 C-AA to each tube and incubated at 37° C. for 20 minutes. The reaction was stopped by adjusting the pH of each sample to 3 to 3.5 with 2M formic acid. Samples were extracted with three volumes of chloroform to isolate the products of 5-LO formed during the reaction. Fractions were dried under nitrogen, then resuspended in 40 μL of chloroform and spotted onto silica gel HL plates. The plates were developed in A-9 solvent. The dried plates were analyzed using a Bioscan Imaging TLC scanner to determine the percentage of radiolabelled AA converted to 5-HETE in each sample.
(§3) In the following tables, the superscripts indicate the number of experiments and, unless otherwise stated, the dose at which % inhibition is reported is 3 MPK.

[2] = biological target: T2, RBL-1 Cell 5-Lipoxygenase (Rattus norvegicus, UniProt P12527); assay: Procedure II: 5-lipoxygenase inhibition in disrupted RBL-1 cells (supernatant as enzyme source); format: biochemical; settings: for IC50: read-out: IC50 5-LO (Procedure II)
T2 construct: the supernatant was saved as the source of enzymes; endogenous in cells; host or cells: RBL-1 (rat basophilic leukemia cells), 10,000×g supernatant of homogenate
T2 sequence (P12527 1-673): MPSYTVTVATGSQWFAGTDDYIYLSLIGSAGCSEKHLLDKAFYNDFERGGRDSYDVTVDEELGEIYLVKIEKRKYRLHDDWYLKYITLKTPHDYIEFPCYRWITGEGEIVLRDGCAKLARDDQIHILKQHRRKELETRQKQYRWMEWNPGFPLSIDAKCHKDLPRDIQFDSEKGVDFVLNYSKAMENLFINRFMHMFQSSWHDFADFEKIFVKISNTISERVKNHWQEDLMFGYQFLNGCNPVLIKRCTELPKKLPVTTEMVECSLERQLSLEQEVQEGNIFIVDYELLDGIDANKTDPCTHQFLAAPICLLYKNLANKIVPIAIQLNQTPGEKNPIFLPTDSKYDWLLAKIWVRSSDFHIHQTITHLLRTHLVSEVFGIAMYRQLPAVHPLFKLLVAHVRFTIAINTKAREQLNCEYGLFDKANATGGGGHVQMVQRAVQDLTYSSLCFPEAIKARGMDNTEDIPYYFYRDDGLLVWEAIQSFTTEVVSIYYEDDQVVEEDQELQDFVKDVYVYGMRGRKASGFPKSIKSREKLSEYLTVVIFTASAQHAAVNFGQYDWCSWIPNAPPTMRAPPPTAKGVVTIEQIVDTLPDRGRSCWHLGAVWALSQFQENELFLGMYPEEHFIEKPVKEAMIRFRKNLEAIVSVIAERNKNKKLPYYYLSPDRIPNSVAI
Procedure: as §1, §2, §3

CO in intact RBL-1 cells = biological target: T3, CO in intact RBL-1 cells (Rattus norvegicus, UniProt Q63921); assay: Procedure III: inhibition of CO in intact RBL-1 cells; format: cell-based
T3 construct: 5-LO and CO in intact RBL-1 cells; endogenous in cells; host or cells: RBL-1 (rat basophilic leukemia cells), intact
T3 sequence (Q63921 27-602): T1 sequence (Q63921 27-602)
Procedure: The ability to inhibit 5-LO and CO in intact RBL-1 cells was also evaluated. RBL-1 cells were maintained in culture in minimal essential medium (Bio*Whittaker, Walkersville, Md.), containing 12.5% fetal calf serum, 10 mg/mL streptomycin, 10 I.U./mL penicillin G, […] gentamycin and 2 mM L-glutamine (Bio*Whittaker, Walkersville, Md.). Cells were collected by centrifugation, washed once in HBSS, and resuspended at a concentration of 1×10^5 cells/mL. Cells were incubated in the presence of vehicle or drug then centrifuged at 800×g for 10 minutes at 4° C. The supernatant was removed by aspiration and the cells were resuspended in 0.5 mL of HBSS. The reaction was started by the addition of 20 μg/mL of calcium ionophore A-23187 (mixed calcium and magnesium salts, Calbiochem, La Jolla, Calif.) and allowed to proceed for 15 minutes, then stopped by plunging the tubes into a slush ice bath. The conversion of AA to 5-LO products was initiated by the addition of 10 μL (50 uCi) of 1-^14 C-AA. Products were isolated by acidification and extraction, followed by thin layer chromatography analysis as described above. Radioactive areas corresponding to authentic 5-LO and CO products were quantitated by the Bioscan 2000 Imaging System.
as §3

Row | Structure (SMILES) | % INHIBITION CO (Procedure II) [1] [%] | IC50 [1] [nM] | % INHIBITION 5-LO (Procedure II) [2] [%] | IC50 [2] [nM] | IC50 (CO in intact RBL-1 cells) [nM]
1 | COc1ccc(-n2nc(COC(=O)NO)cc2-c2ccc(Cl)cc2)cc1 [1-A] | 34 | 180 | 20 | 1270 | 1400
2 | COc1ccc(-n2nc(COC(=O)N(C)O)cc2-c2ccc(Cl)cc2)cc1 [1-B] | 52 | 1400 | 85 | 480 | 380
3 | COc1ccc(-n2nc(COC(=O)N(O)C(C)C)cc2-c2ccc(Cl)cc2)cc1 [1-C] | 80 | 1100 | 88 | 1020 | 540
4 | COc1ccc(-n2nc(COC(=O)NO)c(Br)c2-c2ccc(Cl)cc2)cc1 [1-D] | 36 | 300 | 28 | 840 | 2400
5 | COc1ccc(-n2nc(COC(=O)N(C)O)c(Br)c2-c2ccc(Cl)cc2)cc1 [1-E] | 43 | 170 | 85 | 280 | 220
6 | COc1ccc(-n2nc(COC(=O)N(O)C(C)C)c(Br)c2-c2ccc(Cl)cc2)cc1 [1-F] | 0 | 880 | 63 | 120 | 1900
7 | COc1ccc(-n2nc(COC(=O)NO)c(Cl)c2-c2ccc(Cl)cc2)cc1 [1-G] | 18 | 950 | 25 | 750 | 2200
8 | COc1ccc(-n2nc(COC(=O)N(C)O)c(Cl)c2-c2ccc(Cl)cc2)cc1 [1-H] | 41 | 220 | 83 | < 100 | 390
9 | COc1ccc(-n2nc(COC(=O)N(O)C(C)C)c(Cl)c2-c2ccc(Cl)cc2)cc1 [1-I] | 3 | 1630 | 83 | 230 | 1970
10 | COc1ccc(-n2nc(COC(=O)NO)cc2-c2ccc(C)cc2)cc1 [1-J] | 87 | 180 | 33 | 1750 | 170
11 | COc1ccc(-n2nc(COC(=O)N(C)O)cc2-c2ccc(C)cc2)cc1 [1-K] | 100 | 150 | 58 | 300 | 30
12 | COc1ccc(-n2nc(COC(=O)N(O)C(C)C)cc2-c2ccc(C)cc2)cc1 [1-L] | 64 | 1700 | 86 | 480 | 20
13 | COc1ccc(-n2nc(COC(=O)NO)c(Br)c2-c2ccc(C)cc2)cc1 [1-M] | 85 | 1460 | 63 | 5300 | 860
14 | COc1ccc(-n2nc(COC(=O)N(C)O)c(Br)c2-c2ccc(C)cc2)cc1 [1-N] | 100 | 1140 | 74 | 410 | 80
15 | COc1ccc(-n2nc(COC(=O)N(O)C(C)C)c(Br)c2-c2ccc(C)cc2)cc1 [1-O] | 82 | 3120 | 81 | 180 | 860
16 | COc1ccc(-n2nc(COC(=O)NO)c(Cl)c2-c2ccc(C)cc2)cc1 [1-P] | 0 | 1090 | 30 | 890 | 2500
17 | COc1ccc(-n2nc(COC(=O)N(C)O)c(Cl)c2-c2ccc(C)cc2)cc1 [1-Q] | 82 | 210 | 88 | 50 | 150
